Laboratory results published in patent US5696112A, “Fused heterocyclic azepines as vasopressin antagonists” (American Cyanamid Company, priority 1995, dated 1997).
Values belong to the molecule of their own block, whether it stands above or below them.

How the values were obtained:
[1] = biological target: T1, Rat Kidney Medullary V2 Receptors (vasopressin V2) (Rattus norvegicus, UniProt Q00788); test: Binding Assay to Rat Kidney Medullary V2 Receptors; settings: rat kidney medullary V2, [3H]Arg8-vasopressin
T1 construct: Medullary tissues from rat kidneys are dissected out; from tissue; host or cells: rat kidney medulla membranes
Description: Binding Assay to Rat Kidney Medullary V2 Receptors
Medullary tissues from rat kidneys are dissected out, cut into small pieces and let soak in a […] sodium chloride solution containing 1.0 mM EDTA with many changes of the liquid phase, until the solution is clear of blood. The tissue is homogenized in a 0.25M sucrose solution containing 1.0 mM EDTA and 0.1 mM PMSF using a Potter-Elvehjem homogenizer with a teflon pestle. The homogenate is filtered through several layers (4 layers) of cheese cloth. The filtrate is rehomogenized using a dounce homogenizer, with a tight fitting pestle. The final homogenate is contrifuged at 1500×g for 15 min. The nuclear pellet is discarded and the supernatant fluid recentrifuged at 40,000×g for 30 min. The resulting pellet formed contains a dark inner part with the exterior, slightly pink. The pink outer part is suspended in a small amount of 50.0 mMTris.HCl buffer, pH 7.4. The protein content is determined by the Lowry's method (Lowry et al, J. Biol. Chem., 1953). The membrane suspension is stored at -70° C., in 50.0 mMTris.HCl, containing 0.2% inactivated BSA and 0.1 mM PMSF in aliquots of 1.0 ml containing 10.0 mg protein per ml of suspension until use in subsequent binding experiments.
For binding experiments, the following is added in μl volume to wells of a 96 well format of a microtiter plate: 100.0 μl of 100.0 mM Tris.HCl buffer containing 0.2% heat inactivated BSA, 10.0 mM MgCl2 and a mixture of protease inhibitors: leupeptin, 1.0 mg %; aprotinin, 1.0 mg %; 1,10-phenanthroline, 2.0 mg %; trypsin inhibitor, 10.0 mg % and 0.1 mM PMSF, 20.0 μl of [^3 H]Arginine^8, vasopressin (S.A. 75.0 Ci/mmole) at 0.8 nM and the reaction initiated by the addition of 80.0 μl of tissue membranes (200.0 μg tissue protein). The plates are left undisturbed on the bench top for 120 min. to reach equilibrium. Non-specific binding is assessed in the presence of 1.0 μM of unlabeled ligand, added in 20 μl volume. For test compounds, these are solubilized in 50% dimethylsulfoxide (DMSO) and added in 20.0 μl volume to a final incubation volume of 200 μl. Upon completion of binding, the content of each well is filtered off, using a Brandel® cell Harvester (Gaithersburg, Md.). The radioactivity trapped on the filter disk by the ligand-receptor complex is assessed by liquid scintillation counting in a Packard LS Counter, with an efficiency of 65% for tritium. The data are analyzed for IC50 values by the LUNDON-2 program for competition (LUNDON SOFTWARE, OH).

[2] = biological target: T2, Rat Hepatic V1 Receptors (vasopressin V1) (Rattus norvegicus, UniProt P30560); test: Binding Assay to Rat Hepatic V1 Receptors; settings: rat hepatic V1, [3H]vasopressin
T2 construct: Rat liver plasma membranes expressing the vasopressin V1 receptor subtypes are isolated by sucrose density gradient; from tissue; host or cells: rat liver plasma membranes
Description: Binding Assay to Rat Hepatic V1 Receptors
Rat liver plasma membranes expressing the vasopressin V1 receptor subtypes are isolated by sucrose density gradient according to the method described by Lesko et al., (1973). These membranes are quickly suspended in 50.0 mMTris.HCl buffer, pH 7.4, containing 0.2% bovine serum albumin (BSA) and 0.1 mM phenylmethylsulfonylfluoride (PMSF) and kept frozen at -70° C. until used in subsequent binding experiments. For binding experiments, the following is added to the wells of a ninety-six well format microtiter plate: 100 μl of 100.0 mM Tris.HCl buffer containing 10.0 mM MgCl2, 0.2% heat inactivated BSA and a mixture of protease inhibitors: leupeptin, 1.0 mg %; aprotinin, 1.0 mg %, 1,10-phenanthroline,2.0 mg %; trypsin inhibitor, 10.0 mg % and 0.1 mM PMSF, 20.0 μl of [phenylalanyl-3,4,5-^3 H]vasopressin (S.A. 45.1 Ci/mmole) at 0.8 nM, and the reaction initiated by the addition of 80 μl of tissue membranes containing 20 μg of tissue protein. The plates are kept undisturbed on the bench top at room temperature for 120 min. to reach equilibrium. Nonspecific samples are assayed in the presence of 0.1 μM of the unlabeled antagonist phenylalanylvasopressin, added in 20.0 μl volume to a final incubation volume of 200 μl. Upon completion of binding, the content of each well is filtered off, using a Brandel® cell Harvester (Gaithersburg, Md.). The radioactivity trapped on the filter disk by the ligand-receptor complex is assessed by liquid scintillation counting in a Packard LS Counter, with an efficiency of 65% for tritium. The data are analyzed for IC50 values by the LUNDON-2 program for competition (LUNDON SOFTWARE, OH).

[3] = system: Vasopressin V2; test: Vasopressin V2 Antagonist Activity in Conscious Hydrated Rats; type: in vivo, rat; settings: AVP 0.4 μg/kg i.p.
Description: Vasopressin V2 Antagonist Activity in conscious Hydrated Rats Conscious hydrated rats are treated with compounds under study from 0.1 to 100 mg/kg orally or vehicle. Two to four rats are used for each compound. One hour later, arginine vasopressin (AVP, antidiuretic hormone, ADH) dissolved in peanut oil is administered at 0.4 μg/kg intraperitoneally. Two rats in each test would not receive arginine vasopressin but only the vehicle (peanut oil) to serve as water-loading control. Twenty minutes later each rat is given 30 mL/kg of deionized water orally by gavage and is placed individually in a metabolic cage equipped with a funnel and a graduated glass cylinder to collect urine for four hours. Urine volume is measured and osmolality analyzed by use of a Fiske One-Ten osmometer (Fiske Assoc., Norwood, Mass. USA). Urinary sodium, potassium, and chloride are analyzed by use of ion-specific electrodes in a Beckman E3 (Electrolyte 3) Analyzer. In the following results, […] and […] osmolality relative to AVP-control indicates activity.

[4] = system: Vasopressin V1; test: Vasopressin V1 Antagonist Activity in Conscious Rats (vasopressin vasopressor response); type: in vivo, rat
Description: Vasopressin V1 Antagonist Activity in Conscious Rats Conscious rats are restrained in a supine position with elastic tape. The area at the base of the tail is locally anesthetization by subcutaneous infiltration with 2% procaine (0.2 ml). Using aseptic technique the ventral caudal tail artery is isolated and a cannula made of PE 10 and 20 (heat-fused) tubing is passed into the lower abdominal aorta. The cannula is secured, heparinized (1000 i.u./cc), sealed and the would closed with one or two stitches of Dexon 4-0. The caudal vein is also cannulated in the same manner for intravenous drug administration. The duration of the surgery is approximately 5 minutes. Additional local anesthesia (2% procaine or lidocaine) is provided as needed. The animals are placed in plastic restraining cages in an upright position. The cannula is attached to a […] pressure transducer and pulsatile blood pressure is recorded. […] Percentage of antagonism by the compound is calculated using the pre-drug vasopressin vasopressor response as 100%.

[5] = biological target: T3, oxytocin receptors (Rattus norvegicus, UniProt P70536); test: Oxytocin Receptor Binding; design: species or system Sprague-Dawley rats; settings: for IC50: 1.0 nM [3H]oxytocin
T3 construct: The uteri are dissected out, cleaned of fat and connective tissues; from tissue; host or cells: uterus membranes of DES-treated female Sprague-Dawley rats
T3 sequence (P70536 1-388): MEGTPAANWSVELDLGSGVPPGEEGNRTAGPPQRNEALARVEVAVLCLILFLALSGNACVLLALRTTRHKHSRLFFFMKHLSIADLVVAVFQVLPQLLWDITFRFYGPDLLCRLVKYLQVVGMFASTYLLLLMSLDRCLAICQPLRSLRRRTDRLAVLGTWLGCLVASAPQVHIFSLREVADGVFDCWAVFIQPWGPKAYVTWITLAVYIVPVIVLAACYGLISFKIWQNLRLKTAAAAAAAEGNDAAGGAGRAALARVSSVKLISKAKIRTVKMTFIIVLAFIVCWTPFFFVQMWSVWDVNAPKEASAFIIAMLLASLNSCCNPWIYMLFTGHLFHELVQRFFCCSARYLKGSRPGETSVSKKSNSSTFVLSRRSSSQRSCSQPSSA
Description: Oxytocin Receptor Binding
Female Sprague-Dawley rats weighing approximately 200-250 g are injected intramuscularly (i.m.) with 0.3 mg/kg of body weight of diethylstilbestrol (DES). The rats are sacrificed 18 hours later under pentobarbital anesthesia. The uteri are dissected out, cleaned of fat and connective tissues and rinsed in 50 ml of normal saline. The tissue pooled from six rats is homogenized in 50 ml of 0.01 mMTris.HCl, containing 0.5 mM dithiothreitol and 1.0 mM EDTA, adjusted to pH 7.4, using a polytron at setting 6 with three passes of 10 sec each. The homogenate is passed through two (2) layers of cheesecloth and the filtrate centrifuged at 1000×g for 10 min. The clear supernatant is removed and recentrifuged at 165,000×g for 30 min. The resulting pellet containing the oxytocin receptors is resuspended in 50.0 mM Tris.HCl containing 5.0 mM MgCl2 at pH 7.4, to give a protein concentration of 2.5 mg/ml of tissue suspension. This preparation is used in subsequent binding assays with [^3 H]Oxytocin.
Binding of 3,5-[^3 H]Oxytocin ([^3 H]OT) to its receptors is done in microtiter plates using [^3 H]OT, at various concentrations, in an assay buffer of 50.0 mM Tris.HCl, pH 7.4 and containing 5.0 mM MgCl2, and a mixture of protease inhibitors: BSA, 0.1 mg; aprotinin, 1.0 mg; 1,10-phenanthroline, 2.0 mg; […], 10.0 mg; and PMSF, 0.3 mg per 100 ml of buffer solution. Nonspecific binding is determined in the presence of 1.0 uM unlabeled OT. The binding reaction is terminated after 60 min., at 22° C., by rapid filtration through glass fiber filters using a Brandel® cell harvester (Biomedical Research and Development Laboratories, Inc., Gaithersburg, Md.). Competition experiments are conducted at equilibrium using 1.0 nM [^3 H]OT and varying the concentration of the displacing agents. The concentrations of agent displacing 50% of [^3 H]OT at its sites (IC50) are calculated by a computer assisted LUNDON-2 program (LUNDON SOFTWARE INC., Ohio, USA).

[6] = Rattus norvegicus, 10 mg/kg iv, read-out: Vasopressin vasopressor response, Max. % Inhibition

T2 sequence (P30560 whole entry): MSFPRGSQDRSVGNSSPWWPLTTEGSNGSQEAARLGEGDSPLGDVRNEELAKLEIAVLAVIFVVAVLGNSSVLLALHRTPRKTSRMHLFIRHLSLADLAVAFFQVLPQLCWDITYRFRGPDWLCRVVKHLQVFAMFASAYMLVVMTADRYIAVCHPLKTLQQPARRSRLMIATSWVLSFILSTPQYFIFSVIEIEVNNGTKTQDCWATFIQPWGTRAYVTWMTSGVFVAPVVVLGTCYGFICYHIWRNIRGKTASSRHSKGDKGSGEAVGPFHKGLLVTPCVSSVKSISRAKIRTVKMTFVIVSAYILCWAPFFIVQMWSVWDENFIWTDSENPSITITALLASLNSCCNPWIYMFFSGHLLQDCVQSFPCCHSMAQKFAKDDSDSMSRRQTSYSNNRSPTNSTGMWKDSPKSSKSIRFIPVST
T1 sequence (Q00788 whole entry): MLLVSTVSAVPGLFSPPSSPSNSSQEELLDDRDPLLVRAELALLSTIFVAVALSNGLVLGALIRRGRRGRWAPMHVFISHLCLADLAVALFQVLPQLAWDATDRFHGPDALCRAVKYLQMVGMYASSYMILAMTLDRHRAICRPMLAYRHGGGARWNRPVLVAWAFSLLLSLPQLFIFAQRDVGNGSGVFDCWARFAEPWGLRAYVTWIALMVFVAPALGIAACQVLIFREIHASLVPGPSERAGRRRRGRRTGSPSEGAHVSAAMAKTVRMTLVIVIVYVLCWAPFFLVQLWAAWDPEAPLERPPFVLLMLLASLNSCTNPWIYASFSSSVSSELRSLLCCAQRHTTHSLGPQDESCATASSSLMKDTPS

Compound: Cc1ccc(F)cc1C(=O)Nc1ccc(C(=O)N2CCCCc3sccc32)cn1 [Example 243, N-[5-[(5,6,7,8-tetrahydro-4H-thieno[3,2-b]azepin-4-yl)carbonyl]-2-pyridinyl]-5-fluoro-2-methylbenzamide]
- IC50 [5]: 0.34 µM
- inhibition at 10 µM ([5]; 10 μM): 96%
- IC50 [1]: 0.0061 µM
- IC50 [2]: 0.068 µM

Compound: O=C(Nc1ccc(C(=O)N2CCCCc3sccc32)cn1)c1ccccc1-c1ccccc1 [Example 252]
- IC50 [5]: 0.17 µM
- inhibition at 2.5 µM ([5]; 2.5 μM): 93%
- IC50 [1]: 0.0061 µM
- IC50 [2]: 0.068 µM

Now from value to molecule, other results behind:

- IC50 [1]: 0.0026 µM
- IC50 [2]: 0.0037 µM
Compound: O=C(Cc1ccccc1Cl)Nc1ccc(C(=O)N2CCCCc3sccc32)cc1 [Example 2, N-[4-[(5,6,7,8-Tetrahydro-4H-thieno[3,2-b]azepin-4-yl)carbonyl]phenyl]-2-chlorobenzeneacetamide]
- Urine Volume ([3]; 10 mg/kg P.O.): 2.8 ml/4 hours
- Time (Min) of Max. % Inhibition ([4]; 10 mg/kg iv): 60 min
- inhibition in vivo at 10 mg/kg [4, 6]: 7.6%

- IC50 [1]: 0.03 µM
- IC50 [2]: 0.12 µM
Compound: O=C(Nc1ccc(C(=O)N2CCCCc3sccc32)cc1)c1ccc(Cl)cc1Cl [Example 14, N-[4-[(5,6,7,8-Tetrahydro-4H-thieno[3,2-b]azepin-4-yl)carbonyl]phenyl]2,4-dichlorobenzamide]
- Osmolality ([3]; 30 mg/kg P.O.): 1432 mOsm/kg
- Urine Volume ([3]; 30 mg/kg P.O.): 3.5 ml/4 hours
- Time (Min) of Max. % Inhibition ([4]; 20 mg/kg iv): 120 min
- inhibition in vivo at 20 mg/kg ([4]; Rattus norvegicus, 20 mg/kg iv, read-out: Vasopressin vasopressor response, Max. % Inhibition): 61%

- IC50 [1]: 0.055 µM
- IC50 [2]: 0.065 µM
Compound: O=C(Nc1ccc(C(=O)N2CCCCc3sccc32)cc1)C1CC=CCC1 (stereo not shown) [Example 15, N-[4-[(5,6,7,8-Tetrahydro-4H-thieno[3,2-b]azepin-4-yl)carbonyl]phenyl]3-cyclohexenecarboxamide]
- Osmolality ([3]; 30 mg/kg P.O.): 1397 mOsm/kg
- Urine Volume ([3]; 30 mg/kg P.O.): 4.6 ml/4 hours
- Time (Min) of Max. % Inhibition ([4]; 10 mg/kg iv): 30 min
- inhibition in vivo at 10 mg/kg [4, 6]: 69%

- IC50 [1]: 0.0033 µM
- IC50 [2]: 0.02 µM
Compound: O=C(Cc1ccccc1Cl)Nc1ccc(C(=O)N2CCCCc3sc(Cl)cc32)cc1 [Example 99, N-[4-[(2-Chloro-5,6,7,8-tetrahydro-4H-thieno[3,2-b]azepin-4-yl)carbonyl]phenyl]-2-chlorobenzeneacetamide]
- Osmolality ([3]; 30 mg/kg P.O.): 1135 mOsm/kg
- Urine Volume ([3]; 30 mg/kg P.O.): 10 ml/4 hours
- Time (Min) of Max. % Inhibition ([4]; 10 mg/kg iv): 90 min
- inhibition in vivo at 10 mg/kg [4, 6]: 58%
